From US6838436B1, “Inhibitors of proteasomal activity for stimulating bone growth” (Osteoscreen Inc., priority 1998, dated 2005) come the findings set out here.

Read-outs that look alike come from different tables or passages of the source. Where a SMILES comes first, the peptide text is derived from it. [ ]: non-standard residue; d: D form. The star is where a group is joined. Nva = CCC[C@H](N)C(=O)O; Cbz = O=C(OCc1ccccc1)*; OtBu = CC(C)(C)O*

In one assay the test system is mouse BMP2 promoter. As to the kind of experiment: High throughput screen (ABA assay): BMP2 promoter-luciferase reporter in 2T3-BMP-2-LUC osteoblast cells. The class given is cell-based. The settings on record: for EC50: read-out: Luciferase Activity (ED50-μM); for activity in the high through-put assay compared with simvastatin: Example 6. An excerpt:
1995, the entire contents of which are incorporated herein by reference. This assay is also described as a portion of a study of immortalized murine osteoblasts (derived from a mouse expressing a transgene composed of a BMP2 promoter driving expression of T-antigen) in Ghosh-Choudhery, N., et al., Endocrinology (1996) 137:331-39. In this study, the immortalized cells were stably transfected with a plasmid containing a luciferase reporter gene driven by a mouse BMP2 promoter (−2736/114 bp), and responded in a dose-dependent manner to recombinant human BMP2.
Briefly, the assay utilizes cells transformed permanently or transiently with constructs in which the promoter of a bone morphogenetic protein, specifically BMP2 or BMP4, is coupled to a reporter gene, typically luciferase. These transformed cells are then evaluated for the production of the reporter gene product; compounds that activate the BMP promoter will drive production of the reporter protein, which can be readily assayed. Many thousands of compounds have been subjected to this rapid screening technique, and only a very small percentage are able to elicit a level of expression of reporter gene 5-fold greater than that produced by vehicle. […] The active compounds (“BMP promoter-active compounds” or “active compounds”) are useful in promoting bone or cartilage growth, and thus in the treatment of vertebrates in need of bone or cartilage growth.
Thousands of compounds have been tested in the assay system set forth in U.S. Ser. No. 08/458,434, filed 2 Jun. 1995, and incorporated herein by reference. […] In this screen, the standard positive control was the compound 59-0008 (also denoted “OS8”), which is of the formula: [drawing 22]
In more detail, the 2T3-BMP-2-LUC cells, a stably transformed osteoblast cell line described in Ghosh-Choudhury et al. Endocrinology (1996) 137:331-39, referenced above, was employed. The cells were cultured using α-MEM, 10% FCS with 1% penicillin/streptomycin and 1% glutamine (“plating medium”), and were split 1:5 once per week. For the assay, the cells were resuspended in a plating medium containing 4% FCS, plated in microtiter plates at a concentration of 5×10^3 cells (in 50 μl)/well, and incubated for 24 hours at 37° C. in 5% CO2. To initiate the assay, 50 μl of the test compound or the control in DMSO was added at 2× concentration to each well, so that the final volume was 100 μl. The final serum concentration was 2% FCS, and the final DMSO concentration was 1%. Compound 59-0008 (10 μM) was used as a positive control.
The treated cells were incubated for 24 hours at 37° C. and 5% CO2. The medium was then removed, and the cells were rinsed three times with PBS. After removal of excess PBS, 25 μl of 1× cell culture lysing reagent (Promega #E153A) was added to each well and incubated for at least ten minutes. Optionally, the plates/samples could be frozen at this point. To each well was added 50 μl of luciferase substrate (Promega #E152A; 10 ml Promega luciferase assay buffer per 7 mg Promega luciferase assay substrate). Luminescence was measured on an automated 96-well luminometer, and was expressed as either picograms of luciferase activity per well or as picograms of luciferase activity per microgram of protein.
Accordingly, other tested compounds can be evaluated at various concentrations, and the results compared to the results obtained for 59-0008 at 10 μM (which value would be normalized to 100). Alternatively, the reactivity of a compound to be tested can be compared directly to a negative control containing no compound.

In a further assay the test system is neonatal mouse calvaria. The assay is described as follows: Neonatal mouse calvaria assay (in vitro / ex vivo) for bone formation. The class given is cell-based, ICR Swiss white mouse. Conditions: for EC50: read-out: Bone Formation (ED50-μM). As to the method:
An assay for bone resorption or bone formation is similar to that described by Gowen M. & Mundy G., J Immunol (1986) 136:2478-82. Briefly, four days after birth, the front and parietal bones of ICR Swiss white mouse pups are removed by microdissection and split along the sagittal suture. In an assay for resorption, the bones are incubated in BGJb medium (Irvine Scientific, Santa Ana, Calif.) plus 0.02% (or lower concentration) β-methylcyclodextrin, wherein the medium also contains test or control substances. The medium used when the assay is conducted to assess bone formation is Fitton and Jackson Modified BGJ Medium (Sigma) supplemented with 6 μg/ml insulin, 6 μg/ml transferrin, 6 ng/ml selenous acid, calcium and phosphate concentrations of 1.25 and 3.0 mM, respectively, and ascorbic acid to a concentration of 100 μg/ml is added every two days. The incubation is conducted at 37° C. in a humidified atmosphere of 5% CO2 and 95% air for 96 hours.
Following this, the bones are removed from the incubation media and fixed in 10% buffered formalin for 24-48 hours, decalcified in 14% EDTA for 1 week, processed through graded alcohols; and embedded in paraffin wax. Three […] sections of the calvaria are prepared. Representative sections are selected for histomorphometric assessment of bone formation or bone resorption. Bone changes are measured on sections cut 200 μm apart. Osteoblasts and osteoclasts are identified by their distinctive morphology.
Selected compounds and appropriate controls were assayed in vitro (ex vivo) for bone formation activity (described above in “Techniques for Neonatal Mouse Calvaria Assay (in vitro)). Histomorphometrical assessments of ex vivo calvaria were carried out using an OsteoMetrics bone morphometry measurement program, according to the manufacturer's instructions. Measurements were determined using either a 10- or 20-fold objective with a standard point counting eyepiece graticule.
New bone formation was determined (using a 10× objective) by measuring the new bone area formed in one field in 3 representative sections of each bone (4 bones per group). Each measurement was carried out ½ field distance from the end of the suture. Both total bone and old bone area were measured. Data were expressed as new bone area in μm^2.
Osteoblast numbers are determined by point counting. The number of osteoblast cells lining the bone surface on both sides of the bone are counted in one field using a 20× objective. Data are expressed as osteoblast numbers/mm of bone surface. […]

The test system of another assay is hair follicles. The assay is described as follows: Induction of anagen in hair follicles in vivo (Example 12). The settings on record: for hair follicle differentiation in vivo: examined 16 days later. Details: species or system C57 black mice. The protocol:
Inhibitors of the proteasomal chymotrypsin-like activity were treated for their capacity to induce transit of hair follicles into anagen in vivo in C57 black mice eight weeks of age.

In assay [1] the test system is hair follicles of skin explants. The assay is described as follows: Cultured skin explants from 5 day old mice, hair follicle diameter and elongation (Example 11). The class given is cell-based, C3H/HeS1c mice. Conditions: 72 hours. The protocol:
Cultured skin explants from 5 day old mice cultured for 72 hours were treated with proteasome inhibitors, non-proteasomal proteases and non-proteasomal inhibitors of NF-κB and effects on hair follicle diameter and follicle elongation were determined according to the method of Kamiya, T., et al., J Derm Sci (1998) 17:54-60. Skin slices from the dorsal skin of 5 day old C3H/HeS1c mice were cultured in 1 ml of αMEM and 0.1% BSA for 72 hours and then assessed for changes in hair follicle diameter and hair elongation under an inverted microscope, using image analysis. […] Thus, the chymotrypsin-like activity of the proteasome is the catalytic component of the proteasome that is responsible for the effects of these compounds on hair follicle differentiation and hair growth. Only proteasome inhibitors had discernable effects on these parameters.

The mark [2] stands for this setting: Mus musculus, calvarial assay in vitro.

Turning to simvastatin, the “response in the high throughput luciferase screen” value (“response” for short) in the assay on mouse BMP2 promoter is “good response”. Also, the Luciferase activity/well in the assay on mouse BMP2 promoter (dose 0.000625 μM) was found to be 0.07; with mouse BMP2 promoter (dose 0.00125 μM), 0.07; with mouse BMP2 promoter (dose 0.0025 μM), 0.065; in the assay on mouse BMP2 promoter (dose 0.005 μM), 0.07; in the assay on mouse BMP2 promoter (dose 0.01 μM) it was 0.07; in the assay on mouse BMP2 promoter (dose 0.02 μM), 0.07. Besides, the Luciferase activity/well came out at 0.07 in the assay on mouse BMP2 promoter (dose 0.04 μM); 0.07 with mouse BMP2 promoter (dose 0.08 μM); 0.07 with mouse BMP2 promoter (dose 0.16 μM); 0.07 in the assay on mouse BMP2 promoter (dose 0.32 μM); 0.09 with mouse BMP2 promoter (dose 0.625 μM); 0.11 in the assay with mouse BMP2 promoter (dose 1.25 μM). In addition, the Luciferase activity/well in the assay on mouse BMP2 promoter (dose 2.5 μM) was 0.14; in the assay with mouse BMP2 promoter (dose 5 μM), 0.15; with mouse BMP2 promoter (dose 10 μM), 0.15. For the same compound, the EC50 in the assay on mouse BMP2 promoter and in the assay with neonatal mouse calvaria (calvarial assay in vitro) was 0.2 µM in each case. Moreover, the “new bone formation in the in vitro calvarial assay” value (“new bone formation” for short) with neonatal mouse calvaria is reported as “showed new bone formation”. In the assay with hair follicles (injected locally into the subcutaneous tissue in sufficient concentrations to cause local periosteal bone formation), the “effect on hair follicles” value is reported as “had no effect on hair follicles”.
On to `CC(C)C[C@@H](C=O)NC(=O)[C@@H](CC(C)C)NC(=O)[C@H](CC(C)C)NC(=O)OCc1ccccc1` [MG-132, N-carbobenzoyl-Leu-Leu-Leu-CHO] (Cbz-Leu-[dL]-Leu-aldehyde), for which the “response” value in the assay with mouse BMP2 promoter is on record as “high activity”. Moreover, the EC50 in the assay with mouse BMP2 promoter (Mus musculus, Osteoblast) amounted to 0.25 µM; with neonatal mouse calvaria (Mus musculus), 0.5 µM. The “new bone formation” value in the assay on neonatal mouse calvaria is listed as “showed new bone formation”. The “effect on hair follicle differentiation and hair growth” value in assay [1] (0.5 μM) is “effectively stimulated hair follicle differentiation and enhanced hair growth”.
Turning to `CCC[C@@H](C=O)NC(=O)[C@H](CC(C)C)NC(=O)[C@H](CC(C)C)NC(=O)OCc1ccccc1` [MG-115, N-carbobenzoyl-Leu-Leu-Nva-CHO] (Cbz-Leu-Leu-[Nva]-aldehyde), in the assay on mouse BMP2 promoter, the “response” value is reported as “high activity”. Moreover, the EC50 in the assay with mouse BMP2 promoter (Mus musculus, Osteoblast) was found to be 2 µM; in the assay on neonatal mouse calvaria (setting [2]), 1 µM. Also, in the assay with neonatal mouse calvaria, the “new bone formation” value is given as “positive results although less dramatic than those of simvastatin”.
As to `CC[C@H](C)[C@H](NC(=O)[C@H]([C@@H](C)CC)N(C)C(C)=O)C(=O)N[C@H](C(=O)N[C@@H](CC(C)C)C(=O)[C@@]1(C)CO1)[C@@H](C)O` [Epoxomicin], the “activity in the high through-put assay compared with simvastatin” value in the assay on mouse BMP2 promoter is recorded as “more active than simvastatin”. Further, the Luciferase activity/well in the assay with mouse BMP2 promoter (dose 0.000625 μM) amounted to 0.07; with mouse BMP2 promoter (dose 0.00125 μM) it was 0.07; in the assay on mouse BMP2 promoter (dose 0.0025 μM) it was 0.08; in the assay on mouse BMP2 promoter (dose 0.005 μM) it was 0.10; in the assay with mouse BMP2 promoter (dose 0.01 μM), 0.14; in the assay on mouse BMP2 promoter (dose 0.02 μM), 0.17. Moreover, the Luciferase activity/well in the assay with mouse BMP2 promoter (dose 0.04 μM) is given as 0.20; with mouse BMP2 promoter (dose 0.08 μM), 0.21. Further, the “effective in concentrations as low as” value in assay [1] is given as 12.5 nM. In the assay with hair follicles (dose not given, subcutaneously in the scalp daily for 5 days), the “hair follicle differentiation in vivo” value is reported as “increased hair follicle differentiation in vivo”.
Regarding `CC[C@H](C)[C@H](NC(=O)OCc1ccccc1)C(=O)N[C@@H](CCC(=O)OC(C)(C)C)C(=O)N[C@@H](C)C(=O)N[C@H](C=O)CC(C)C` [PSI, N-carbobenzoyl-Ile-Glu-(OtBu)-Ala-Leu-CHO] (Cbz-IE(OtBu)AL-aldehyde), the “activity in the high through-put assay compared with simvastatin” value in the assay on mouse BMP2 promoter was “more active than simvastatin”. For the same compound, the EC50 was 0.05 µM with mouse BMP2 promoter (Mus musculus, Osteoblast) and 0.03 µM in the assay with neonatal mouse calvaria (setting [2]). Besides, the Luciferase activity/well with mouse BMP2 promoter (dose 0.000625 μM) stood at 0.07; in the assay with mouse BMP2 promoter (dose 0.00125 μM) it was 0.08; in the assay with mouse BMP2 promoter (dose 0.0025 μM), 0.07; in the assay with mouse BMP2 promoter (dose 0.005 μM), 0.08; in the assay on mouse BMP2 promoter (dose 0.01 μM), 0.08; in the assay on mouse BMP2 promoter (dose 0.02 μM), 0.09. Besides, the results for the Luciferase activity/well in the assay on mouse BMP2 promoter (dose 0.04 μM) and in the assay on mouse BMP2 promoter (dose 0.08 μM) were 0.12 and 0.18, respectively. Further, the “inducing bone formation compared with BMP-2 and bFGF” value in the assay with neonatal mouse calvaria is “as good as, or better than, BMP-2 and bFGF”. Also, in assay [1] (12.5 nM), the “effect on hair follicle differentiation and hair growth” value is “effectively stimulated hair follicle differentiation and enhanced hair growth”. In addition, the “hair follicle differentiation in vivo” value in the assay on hair follicles (5 mg/kg/day subcutaneously in the scalp daily for 5 days) is “increased hair follicle differentiation in vivo”.
As to `CC(=O)N[C@@H](CSC(=O)[C@]1([C@@H](O)C(C)C)NC(=O)[C@H](C)[C@@H]1O)C(=O)O` [Lactacystin, lactacystin], in the assay with mouse BMP2 promoter, the “response” value is “Positive responses”. Further, the EC50 with mouse BMP2 promoter (Mus musculus, Osteoblast) came out at 1 µM; with neonatal mouse calvaria (setting [2]), 1 µM. For the same compound, the “new bone formation” value with neonatal mouse calvaria is given as “showed new bone formation”. For the same compound, in assay [1] (dose not given), the “effect on hair follicle differentiation and hair growth” value is “effectively stimulated hair follicle differentiation and enhanced hair growth”.
